System: K98450-129-R-PDC multicell spheroids, viability
Assay: Anticancer human tumor K98450-129-R-PDC patient-derived colon adenocarcinoma cell line growth inhibition [PI3K]
Settings: for IC50: curve of first compound; for viability, T/C: stronger effect = lower value; active means viability on the fitted dose curve at most 10% of control; inactive means the rest
Source text: Combinatorial screen of targeted agents with the PI3K inhibitors inavolisib, alpelisib, duvelisib, and copanlisib in multi-cell type tumor spheroids
A high-throughput screen of multi-cell type tumor spheroids was designed to identify active combinations of targeted small molecules and PI3K pathway inhibitors. Complex spheroids include a stromal component modeled by human endothelial cells (HUVEC) and fibroblasts modeled by human mesenchymal stem cells (MSCs). The concentration ranges selected for each drug and investigational agent were based upon clinically achievable concentrations if the clinical Cmax of the agent was known.
Compounds. The drugs and investigational agents: inavolisib (NSC800729), alpelisib (NSC765974), duvelisib (NSC772469), copanlisib (NSC816437), ipatasertib (NSC767898), afuresertib (NSC778305), talazoparib (NSC767125), sapanisertib (NSC764658), selumetinib (NSC741078), tovorafenib (DAY101, NSC766906), vemurafenib (NSC761431), ravoxertinib (NSC781343), sotorasib (NSC818433), MRTX1133 (NSC 836407), abemaciclib (NSC 768073), palbociclib (NSC758247), venetoclax (NSC 766270), SY5609 (NSC837396), enzalutamide (NSC755605), and darolutamide (NSC825331), were obtained from the National Cancer Institute (NCI) Developmental Therapeutics Program Chemical Repository. The FDA-approved anticancer drug set is available from the NCI Developmental Therapeutics Program. […] The stock solutions were prepared in dimethyl sulfoxide (DMSO, Sigma-Aldrich, St. Louis, MO, cat. D2650) at 800-fold the tested concentration and stored at -70 degrees C prior to their use. All drugs and investigational agents were tested over a range starting from a high concentration at or near the clinical Cmax and decreasing in half-log increments. If the clinical Cmax for an agent had not been determined, the highest concentration tested was 10 microM.
Cell Culture. All cells were maintained in an incubator at 37 degrees C and 5% CO2 with 95% humidity. The PDC lines were cultured according to standard operating procedures established by the NCI PDMR (https://pdmr.cancer.gov/sops/default.htm). All PDCs were thawed and cultured in Matrigel-coated flasks prepared with a working solution of 1X Ham's F-12 nutrient mix, without supplementation (Invitrogen, Waltham, MA, cat. 11765054), 100 U/mL penicillin-streptomycin (Invitrogen, cat. 15140122), and 2.5% Matrigel (Corning Inc., Corning, NY, cat. 354248) for the first three passages. The 354836-022-R-J1-PDC, 475296-252-R-J1-PDC, and 997726-040-R-J2-PDC lines were cultured in 6A media, which includes advanced DMEM/F-12 (Thermo Fisher Scientific, cat. 12634028), 10 mM HEPES (Thermo Fisher Scientific, cat. 15630080), 1X GlutaMAX supplement (Thermo Fisher Scientific, cat. 35050061), 0.1 mg/mL primocin (InvivoGen, San Diego, CA, cat. ant-pm-2), 10% defined fetal bovine serum, heat inactivated (HyClone Laboratories Inc., Logan, UT, cat. SH30070.03HI), 50% L-WRN conditioned media (ATCC, cat. CRL-3276), 1.25 mM N-Acetyl-L-cysteine (Sigma-Aldrich, cat. A9165), 10 mM nicotinamide (Sigma-Aldrich, cat. N0636), 1X B-27 supplement (Thermo Fisher Scientific, cat. 17504044), 1X N-2 supplement (Thermo Fisher Scientific, cat. 17502048), and 10 microM Y-27632 dihydrochloride (Tocris Bioscience, Bristol, United Kingdom, cat. 1254). The 624824-186-R-J2-PDC line was cultured in 6C/Colon 1B media, which includes all 6A media components plus 50 ng/mL human EGF recombinant protein (Thermo Fisher Scientific, cat. PHG0311). […]

[1] = second compound 0.00316 µM, first compound 0.0316 µM
[2] = second compound 0.00316 µM, first compound 0.1 µM
[3] = second compound 0.00316 µM, first compound 0.316 µM
[4] = second compound 0.00316 µM, first compound 1 µM
[5] = second compound 0.00316 µM, first compound 3.16 µM
[6] = second compound 0.00316 µM, first compound 10 µM
[7] = second compound 0.01 µM, first compound 0.0316 µM
[8] = second compound 0.01 µM, first compound 0.1 µM
[9] = second compound 0.01 µM, first compound 0.316 µM
[10] = second compound 0.01 µM, first compound 1 µM
[11] = second compound 0.01 µM, first compound 3.16 µM
[12] = second compound 0.01 µM, first compound 10 µM
[13] = second compound 0.0316 µM, first compound 0.0316 µM
[14] = second compound 0.0316 µM, first compound 0.1 µM
[15] = second compound 0.0316 µM, first compound 0.316 µM
[16] = second compound 0.0316 µM, first compound 1 µM
[17] = second compound 0.0316 µM, first compound 3.16 µM
[18] = second compound 0.0316 µM, first compound 10 µM
[19] = second compound 0.1 µM, first compound 0.0316 µM
[20] = second compound 0.1 µM, first compound 0.1 µM
[21] = second compound 0.1 µM, first compound 0.316 µM
[22] = second compound 0.1 µM, first compound 1 µM
[23] = second compound 0.1 µM, first compound 3.16 µM
[24] = second compound 0.1 µM, first compound 10 µM
[25] = second compound 0.316 µM, first compound 0.0316 µM
[26] = second compound 0.316 µM, first compound 0.1 µM
[27] = second compound 0.316 µM, first compound 0.316 µM
[28] = second compound 0.316 µM, first compound 1 µM
[29] = second compound 0.316 µM, first compound 3.16 µM
[30] = second compound 0.316 µM, first compound 10 µM
[31] = second compound 1 µM, first compound 0.0316 µM
[32] = second compound 1 µM, first compound 0.1 µM
[33] = second compound 1 µM, first compound 0.316 µM
[34] = second compound 1 µM, first compound 1 µM
[35] = second compound 1 µM, first compound 3.16 µM
[36] = second compound 1 µM, first compound 10 µM
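Further: spheroids exposed to agents for seven days before read-out.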

CC(C)NCC(C(=O)N1CCN(c2ncnc3c2C(C)CC3O)CC1)c1ccc(Cl)cc1 (stereo unspecified) + CC(Nc1ccc2c(c1)OCCn1cc(N3C(=O)OCC3C(F)F)nc1-2)C(N)=O
inactive: viability, T/C [1] 111% | viability, T/C [2] 98% | viability, T/C [3] 101% | viability, T/C [4] 101% | viability, T/C [5] 109% | viability, T/C [6] 98.4% | viability, T/C [7] 115% | viability, T/C [8] 96.1% | viability, T/C [9] 105% | viability, T/C [10] 98.1% | viability, T/C [11] 104% | viability, T/C [12] 102% | viability, T/C [13] 109% | viability, T/C [14] 104% | viability, T/C [15] 98.9% | viability, T/C [16] 101% | viability, T/C [17] 109% | viability, T/C [18] 96.9% | viability, T/C [19] 96.2% | viability, T/C [20] 91.7% | viability, T/C [21] 101% | viability, T/C [22] 102% | viability, T/C [23] 101% | viability, T/C [24] 96.2% | viability, T/C [25] 91% | viability, T/C [26] 90.5% | viability, T/C [27] 100% | viability, T/C [28] 99.2% | viability, T/C [29] 111% | viability, T/C [30] 94.2% | viability, T/C [31] 85.2% | viability, T/C [32] 85.4% | viability, T/C [33] 96.8% | viability, T/C [34] 94.1% | viability, T/C [35] 100% | viability, T/C [36] 95.2%
> 10 µM: IC50 (second compound 0.00316 µM) | IC50 (second compound 0.01 µM) | IC50 (second compound 0.0316 µM) | IC50 (second compound 0.1 µM) | IC50 (second compound 0.316 µM) | IC50 (second compound 1 µM)

CCN1CCN(Cc2ccc(Nc3ncc(F)c(-c4cc(F)c5nc(C)n(C(C)C)c5c4)n3)nc2)CC1 + CC(Nc1ccc2c(c1)OCCn1cc(N3C(=O)OCC3C(F)F)nc1-2)C(N)=O
inactive: viability, T/C (second compound 0.00316 µM, first compound 0.00316 µM) 105% | viability, T/C (second compound 0.00316 µM, first compound 0.01 µM) 92.2% | viability, T/C [1] 104% | viability, T/C [2] 90.3% | viability, T/C [3] 81% | viability, T/C [4] 82.9% | viability, T/C (second compound 0.01 µM, first compound 0.00316 µM) 117% | viability, T/C (second compound 0.01 µM, first compound 0.01 µM) 90.5% | viability, T/C [7] 98.7% | viability, T/C [8] 92.3% | viability, T/C [9] 84.9% | viability, T/C [10] 86.9% | viability, T/C (second compound 0.0316 µM, first compound 0.00316 µM) 109% | viability, T/C (second compound 0.0316 µM, first compound 0.01 µM) 100% | viability, T/C [13] 93.8% | viability, T/C [14] 89.9% | viability, T/C [15] 94.5% | viability, T/C [16] 92.6% | viability, T/C (second compound 0.1 µM, first compound 0.00316 µM) 92.9% | viability, T/C (second compound 0.1 µM, first compound 0.01 µM) 96.8% | viability, T/C [19] 97.4% | viability, T/C [20] 85.5% | viability, T/C [21] 83.7% | viability, T/C [22] 82.8% | viability, T/C (second compound 0.316 µM, first compound 0.00316 µM) 90.6% | viability, T/C (second compound 0.316 µM, first compound 0.01 µM) 98.3% | viability, T/C [25] 95.7% | viability, T/C [26] 86.5% | viability, T/C [27] 85.4% | viability, T/C [28] 79.3% | viability, T/C (second compound 1 µM, first compound 0.00316 µM) 90.5% | viability, T/C (second compound 1 µM, first compound 0.01 µM) 88% | viability, T/C [31] 86.8% | viability, T/C [32] 82.3% | viability, T/C [33] 83.9% | viability, T/C [34] 81.6%
> 1 µM: IC50 (second compound 0.00316 µM) | IC50 (second compound 0.01 µM) | IC50 (second compound 0.0316 µM) | IC50 (second compound 0.1 µM) | IC50 (second compound 0.316 µM) | IC50 (second compound 1 µM)

Cn1ncc(Cl)c1-c1cc(C(=O)NC(CN)Cc2cccc(F)c2)sc1Cl (stereo unspecified) + CC(Nc1ccc2c(c1)OCCn1cc(N3C(=O)OCC3C(F)F)nc1-2)C(N)=O
inactive: viability, T/C [1] 106% | viability, T/C [2] 98.2% | viability, T/C [3] 105% | viability, T/C [4] 95.3% | viability, T/C [5] 93.6% | viability, T/C [6] 97.2% | viability, T/C [7] 109% | viability, T/C [8] 102% | viability, T/C [9] 110% | viability, T/C [10] 95.9% | viability, T/C [11] 97.6% | viability, T/C [12] 102% | viability, T/C [13] 109% | viability, T/C [14] 109% | viability, T/C [15] 99.4% | viability, T/C [16] 102% | viability, T/C [17] 90.3% | viability, T/C [18] 99.3% | viability, T/C [19] 88.7% | viability, T/C [20] 102% | viability, T/C [21] 103% | viability, T/C [22] 97.5% | viability, T/C [23] 97.1% | viability, T/C [24] 95% | viability, T/C [25] 85.7% | viability, T/C [26] 100% | viability, T/C [27] 95.9% | viability, T/C [28] 95.6% | viability, T/C [29] 98.7% | viability, T/C [30] 92.9% | viability, T/C [31] 87.1% | viability, T/C [32] 85.9% | viability, T/C [33] 91.9% | viability, T/C [34] 94.4% | viability, T/C [35] 91% | viability, T/C [36] 85.7%
> 10 µM: IC50 (second compound 0.00316 µM) | IC50 (second compound 0.01 µM) | IC50 (second compound 0.0316 µM) | IC50 (second compound 0.1 µM) | IC50 (second compound 0.316 µM) | IC50 (second compound 1 µM)

Reference: PubChem BioAssay AID1963961 (Molecular Pharmacology Branch, DTP, NCI, 2024)
